Test results reported in US7476670B2, “Purine derivatives, method for preparing, pharmaceutical compositions and novel use” (Aventis Pharma S.A., priority 2003, dated 2009).

Assays:
[1] = target: Cyclin Dependent kinase 2 (CDK2) (Homo sapiens, UniProt P24941); assay: Assay for inhibition of CDK2 activity; assay type: biochemical; conditions: [33P]ATP, read-out: percentage inhibition at 20 μM
Procedure: The inhibition of the kinase activity of Cyclin Dependent kinase 2 (CDK2) is determined by measuring the phosphorylation of its substrate peptide.
The assay is carried out in a final volume of 50 μl.
The incubation buffer as follows:
• 50 mM Hepes/NaOH pH 7.5 • 10 mM MgCl2 • 1 mM DTT 5 μl of the 10-times concentrated inhibitor are added to 25 μl of incubation buffer containing 0.8 U/μL final concentration of the enzyme; 10 μL of incubation buffer containing 0.0025 mg/ml of peptide substrate are then added and, finally, 10 μL of incubation buffer containing 2 mM ATP and radiolabeled ATP, [^33P]ATP (0.25 μCi), are added. The reaction is stopped after incubation for 10 minutes at 37° C. • Results obtained expressed as percentage inhibition at 20 μM • Example 2 97% • Example 27 97% • Example 30 99% 4) Assay for Inhibition of CDK1 Activity

[2] = target: Cyclin Dependent kinase 1 (CDK1) (Homo sapiens, UniProt P06493); assay: Assay for inhibition of CDK1 activity; assay type: biochemical; conditions: [33P]ATP, read-out: percentage inhibition at 20 μM
Cyclin Dependent kinase 1 (CDK1), sequence (P06493 whole entry, species assumed): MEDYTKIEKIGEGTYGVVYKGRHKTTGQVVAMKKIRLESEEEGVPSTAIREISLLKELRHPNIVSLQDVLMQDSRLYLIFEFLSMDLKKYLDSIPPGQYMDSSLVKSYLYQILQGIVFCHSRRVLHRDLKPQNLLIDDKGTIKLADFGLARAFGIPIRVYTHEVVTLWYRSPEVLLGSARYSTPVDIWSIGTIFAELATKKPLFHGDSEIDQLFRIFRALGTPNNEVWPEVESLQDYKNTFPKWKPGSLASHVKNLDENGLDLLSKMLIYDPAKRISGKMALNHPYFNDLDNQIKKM
Cyclin Dependent kinase 1 (CDK1), sequence (P14635 whole entry partner, species assumed): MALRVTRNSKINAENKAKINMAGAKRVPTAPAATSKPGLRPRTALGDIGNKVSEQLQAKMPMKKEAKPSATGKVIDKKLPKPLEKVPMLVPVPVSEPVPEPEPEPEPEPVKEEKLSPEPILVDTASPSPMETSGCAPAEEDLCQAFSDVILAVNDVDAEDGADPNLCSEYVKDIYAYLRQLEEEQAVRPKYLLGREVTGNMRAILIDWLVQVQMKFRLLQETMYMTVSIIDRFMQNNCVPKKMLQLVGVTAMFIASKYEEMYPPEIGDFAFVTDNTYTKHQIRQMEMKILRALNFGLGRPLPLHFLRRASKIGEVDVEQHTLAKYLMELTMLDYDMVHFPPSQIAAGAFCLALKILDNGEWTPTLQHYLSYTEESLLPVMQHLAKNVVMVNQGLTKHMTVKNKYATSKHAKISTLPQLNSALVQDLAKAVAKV
Procedure: The inhibition of the kinase activity of Cyclin Dependent kinase 1 (CDK1) is determined by measuring the phosphorylation of its substrate peptide.
The test is carried out in a final volume of 50 μl.
The incubation buffer is as follows:
• 50 mM Tris/HCl pH 7.5 • 10 mM MgCl2 • […] Na2VO4 • 2 mM DTT • 40 mM Beta-glycerophosphate • 0.1 mg/ml BSA 5 μl of the 10-times concentrated inhibitor are added to 25 μl of incubation buffer containing 0.04 U/μl final concentration of the enzyme; 10 μl of incubation buffer containing 12.5 μM final concentration of peptide substrate are then added and, finally, 10 μl of incubation buffer containing 50 μM ATP and radiolabeled ATP, [^33P]ATP (0.5 μCi), are added. The reaction is stopped after incubation for 40 minutes at ambient temperature. • Results obtained expressed as percentage inhibition at 20 μM • Example 8 93% • Example 30 99% 5) Assay for Inhibition of Abl Activity

AKT kinase = AKT kinase (Homo sapiens, UniProt P31749); assay: Assay for inhibition of AKT activity; assay type: biochemical; conditions: fluorescence polarization, ATP 80 μM; read-out: IC50s expressed as micromolar
AKT kinase, sequence (P31749 whole entry): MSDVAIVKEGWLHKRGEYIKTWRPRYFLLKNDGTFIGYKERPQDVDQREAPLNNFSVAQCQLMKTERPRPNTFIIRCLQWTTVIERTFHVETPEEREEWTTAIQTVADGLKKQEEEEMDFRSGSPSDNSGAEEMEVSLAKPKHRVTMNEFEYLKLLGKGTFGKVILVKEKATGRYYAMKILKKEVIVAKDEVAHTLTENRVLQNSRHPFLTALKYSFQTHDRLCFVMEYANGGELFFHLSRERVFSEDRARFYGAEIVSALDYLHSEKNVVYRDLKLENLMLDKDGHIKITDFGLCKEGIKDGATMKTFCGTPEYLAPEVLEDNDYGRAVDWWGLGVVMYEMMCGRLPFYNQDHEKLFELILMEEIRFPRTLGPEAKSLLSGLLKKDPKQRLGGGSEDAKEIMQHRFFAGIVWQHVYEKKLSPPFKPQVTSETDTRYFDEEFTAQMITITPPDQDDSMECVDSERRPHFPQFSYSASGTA
Procedure: The inhibition of the kinase activity is determined by fluorescence polarization, the AKT kinase phosphorylates a peptide detected by adding an anti-phosphopeptide antibody coupled to a fluorescent label.
The assay is carried out in a final volume of 30 μl; all the reagents are prepared in a buffer: • 50 mM HEPES pH 7.5 • 0.03% triton X100 • 10 mM MgCl2 • 5% Glycerol • 1 mM DTT 10 μl of the 10-times concentrated inhibitor are added to 5 μl of enzyme (20 ng final concentration), and 5 μl of peptide (1 μM final concentration) and 10 μl of ATP (80 μM. final concentration) are added.

Aspergillus fumigatus = assay: Minimum inhibitory concentration in liquid medium, micro method (NCCLS M27-A); assay type: cell-based; conditions: Aspergillus fumigatus; at least 80% inhibition of growth, read after 48-72 h at 37° C., RPMI 1640

Cl.Cl.N[C@H]1CC[C@H](Nc2nc(N3CCc4cc([N+](=O)[O-])ccc43)c3nc[nH]c3n2)CC1 [Example 30, Trans-N-[6-(2,3-dihydro-5-nitro-1H-indol-1-yl)-9H-purin-2-yl]-1,4-cyclohexanediamine dihydrochloride]
inhibition at 20 µM [1]: 99% | inhibition at 20 µM [2]: 99%

Cl.N[C@H]1CC[C@H](Nc2nc(-n3cnc4cc(Cl)c(Cl)cc43)c3nc[nH]c3n2)CC1 [Example 8, Trans-N-[6-(5,6-dichloro-1H-benzimidazol-1-yl)-9H-purin-2-yl]-1,4-cyclohexanediamine hydrochloride]
IC50 (AKT kinase): 0.46 µM | MIC (Aspergillus fumigatus): 32 µg/mL | inhibition at 20 µM [2]: 93%
